Active and inactive are the calls of the source. No cut-off for these calls is given here.
Tests used:
[1] = target: Acetylcholinesterase (Electrophorus electricus) (UniProt O42275); experiment: (§1) Inhibition of Electrophorus electricus acetylcholinesterase by rapid colorimetric determination
Acetylcholinesterase = Acetylcholinesterase (Electrophorus electricus, UniProt O42275); experiment: as §1
Acetylcholinesterase, sequence (O42275 whole entry): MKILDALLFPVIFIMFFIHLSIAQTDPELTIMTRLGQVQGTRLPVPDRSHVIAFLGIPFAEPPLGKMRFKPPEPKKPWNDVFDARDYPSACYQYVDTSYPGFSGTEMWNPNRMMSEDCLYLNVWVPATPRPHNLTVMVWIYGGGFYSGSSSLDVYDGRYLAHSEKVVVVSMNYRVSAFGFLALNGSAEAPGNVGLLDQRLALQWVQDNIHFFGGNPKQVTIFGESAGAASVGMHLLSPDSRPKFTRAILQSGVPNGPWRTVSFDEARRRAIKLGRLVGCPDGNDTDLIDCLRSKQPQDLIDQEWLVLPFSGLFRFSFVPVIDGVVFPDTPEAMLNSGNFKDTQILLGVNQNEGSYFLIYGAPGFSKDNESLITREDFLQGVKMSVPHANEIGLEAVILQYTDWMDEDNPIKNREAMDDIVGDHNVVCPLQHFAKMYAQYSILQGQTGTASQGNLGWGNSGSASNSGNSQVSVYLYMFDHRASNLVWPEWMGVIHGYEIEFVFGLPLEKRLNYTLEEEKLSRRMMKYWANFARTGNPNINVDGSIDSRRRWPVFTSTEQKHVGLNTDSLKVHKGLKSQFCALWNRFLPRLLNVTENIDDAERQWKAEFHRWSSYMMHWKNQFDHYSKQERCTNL

Acetylcholinesterase (Electrophorus electricus), sequence (O42275 24-633 limits assumed): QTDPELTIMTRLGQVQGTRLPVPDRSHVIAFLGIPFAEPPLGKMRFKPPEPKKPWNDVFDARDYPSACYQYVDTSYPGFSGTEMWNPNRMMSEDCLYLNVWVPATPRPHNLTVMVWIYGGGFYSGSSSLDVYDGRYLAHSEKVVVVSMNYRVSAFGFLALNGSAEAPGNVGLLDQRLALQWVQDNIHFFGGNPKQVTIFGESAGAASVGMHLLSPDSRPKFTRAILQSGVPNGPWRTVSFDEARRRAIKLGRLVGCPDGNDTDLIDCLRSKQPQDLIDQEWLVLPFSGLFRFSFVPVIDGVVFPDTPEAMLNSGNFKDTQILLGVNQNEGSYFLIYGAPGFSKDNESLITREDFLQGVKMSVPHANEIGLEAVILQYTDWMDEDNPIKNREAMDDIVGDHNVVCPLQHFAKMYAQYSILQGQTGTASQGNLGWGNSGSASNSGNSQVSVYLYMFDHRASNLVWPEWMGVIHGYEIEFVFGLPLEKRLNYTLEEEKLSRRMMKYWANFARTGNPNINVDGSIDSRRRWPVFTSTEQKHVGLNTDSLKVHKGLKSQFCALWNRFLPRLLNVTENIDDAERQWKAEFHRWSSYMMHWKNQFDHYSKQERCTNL

Structure (SMILES)	Activity [1]	IC50 (Acetylcholinesterase) [µM]
CC(=O)N1CCC[C@H]2[C@@H](C[C@@H]3CC[C@@H]4[C@@H]5C[C@@H]6[C@@H](C[C@@H](C)C[C@@H]6N(C)C5)C[C@H]4N3)C[C@H](C)C[C@H]21	inactive	
CC(=O)N1CCC[C@H]2[C@@H](C[C@H]3CC[C@]4(O)[C@@H]5C[C@@H]6[C@@H](C[C@@H](C)C[C@@H]6N(C)C5)C[C@H]4N3)C[C@H](C)C[C@H]21	inactive	
C[C@@H]1C[C@@H]2C[C@H]3N[C@H](C[C@H]4C[C@@H](C)C[C@@H]5[C@@H]4CCCN5C=O)CC[C@@H]3[C@H]3C[C@H]2[C@@H](C1)N(C)C3 [SERRATEZOMINE D]		600
CC(=O)N1CCC[C@@H]2[C@@H](C[C@H]3CC[C@@H]4[C@H]5C[C@@H]6[C@@H](C[C@@H](C)C[C@@H]6N(C)C5)C[C@H]4N3)C[C@H](C)C[C@@H]21	inactive	
